According to patent US20230066011A1, “PYRROLOPYRIMIDINE DERIVATIVE, AND PHARMACEUTICAL COMPOSITION FOR PREVENTING OR TREATING PROTEIN KINASE-RELATED DISEASE COMPRISING SAME AS ACTIVE INGREDIENT” (VORONOI CO., LTD., priority 2019, published 2023):

How the values were obtained:
TNF-α = test: Inhibition of LPS-induced TNF-α secretion of THP-1 monocytes (ELISA); format: cell-based, human; details: Homo sapiens, THP-1; compound 0.5 μM, LPS 500 ng/mL, 24 hours; read-out: THP-1/TNF-α (% inhib)
Outline: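 THP-1 monocytes grown 16 h at 37 °C, pretreated 1 h with compound at final 0.5 μM, then stimulated with LPS at final 500 ng/mL for 24 h. IL-6 and TNF-α in culture supernatant measured by ELISA (OD 450 nm).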

MDA-MB-231 cell line = test: Inhibition of proliferation of MDA-MB-231 cancer cells (Cell Titer-Glo); format: cell-based; details: Homo sapiens, 72 hours
Outline: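 Cells seeded at 2,000/well and exposed 72 h to 11 concentrations of compound (3-fold dilutions, final 10.000000 down to 0.000169 μM) in DMEM or RPMI. Viability read by Cell Titer-Glo luminescence after 10 min at room temperature; GI50 calculated from luminescence.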

LRRK2 = LRRK2 (Homo sapiens, UniProt Q5S007); test: LRRK2 enzyme inhibition, ADP-Glo kinase assay; format: biochemical; parameters: purchased Invitrogen PR8604B; details: ATP 10 μM
Outline: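 Purified human LRRK2 (25 ng) with 10 μM ATP and 0.2 μg substrate in 40 mM Tris-HCl pH 7.4, 20 mM MgCl2, 0.5 mg/mL BSA, 50 μM DTT, 2 h at 25° C. ADP-Glo luminescence; 12-point compound series from 50 μM final; IC50 relative to solvent control.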

LRRK2, sequence (Q5S007 970-2527 limits assumed): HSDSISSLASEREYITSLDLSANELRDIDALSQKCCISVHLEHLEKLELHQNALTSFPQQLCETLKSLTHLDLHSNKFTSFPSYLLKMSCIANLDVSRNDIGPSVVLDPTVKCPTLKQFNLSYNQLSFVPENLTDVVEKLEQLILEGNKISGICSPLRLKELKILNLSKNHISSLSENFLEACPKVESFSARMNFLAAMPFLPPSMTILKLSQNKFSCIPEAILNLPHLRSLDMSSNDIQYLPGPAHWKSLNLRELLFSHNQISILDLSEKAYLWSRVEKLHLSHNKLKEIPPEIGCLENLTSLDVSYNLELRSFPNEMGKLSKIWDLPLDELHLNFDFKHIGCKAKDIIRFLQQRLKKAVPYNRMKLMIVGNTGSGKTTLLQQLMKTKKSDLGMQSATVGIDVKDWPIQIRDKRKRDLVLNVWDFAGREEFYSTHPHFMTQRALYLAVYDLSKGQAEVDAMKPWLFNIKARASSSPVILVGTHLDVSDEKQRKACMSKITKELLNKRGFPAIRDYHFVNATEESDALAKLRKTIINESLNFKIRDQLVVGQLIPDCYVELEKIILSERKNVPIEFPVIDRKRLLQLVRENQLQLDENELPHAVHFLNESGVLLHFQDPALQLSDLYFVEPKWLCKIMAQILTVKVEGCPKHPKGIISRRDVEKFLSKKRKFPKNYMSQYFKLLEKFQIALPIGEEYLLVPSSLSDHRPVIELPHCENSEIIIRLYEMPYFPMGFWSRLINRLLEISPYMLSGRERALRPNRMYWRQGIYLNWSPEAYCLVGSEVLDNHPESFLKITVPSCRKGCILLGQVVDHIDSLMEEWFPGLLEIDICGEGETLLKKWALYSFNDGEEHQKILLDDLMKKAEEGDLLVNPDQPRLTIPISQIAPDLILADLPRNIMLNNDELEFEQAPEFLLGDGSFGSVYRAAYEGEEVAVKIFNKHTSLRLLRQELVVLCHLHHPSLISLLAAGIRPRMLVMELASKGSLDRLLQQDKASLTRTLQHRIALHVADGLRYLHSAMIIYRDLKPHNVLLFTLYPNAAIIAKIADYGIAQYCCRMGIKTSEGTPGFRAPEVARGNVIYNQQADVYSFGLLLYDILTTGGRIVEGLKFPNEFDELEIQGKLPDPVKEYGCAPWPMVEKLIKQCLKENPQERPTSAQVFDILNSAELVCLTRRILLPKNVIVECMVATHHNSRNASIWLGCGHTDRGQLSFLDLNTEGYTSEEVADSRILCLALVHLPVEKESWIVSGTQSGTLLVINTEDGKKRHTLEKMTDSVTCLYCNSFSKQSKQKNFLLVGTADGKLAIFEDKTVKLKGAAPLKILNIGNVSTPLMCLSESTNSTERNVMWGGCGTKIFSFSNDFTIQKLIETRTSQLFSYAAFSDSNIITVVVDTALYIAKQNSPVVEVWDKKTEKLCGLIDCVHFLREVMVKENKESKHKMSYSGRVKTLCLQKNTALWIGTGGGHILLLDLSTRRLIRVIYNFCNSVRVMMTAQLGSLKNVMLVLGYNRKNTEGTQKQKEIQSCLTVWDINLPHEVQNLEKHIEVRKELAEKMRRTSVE

Structure (SMILES) | GI50 (MDA-MB-231 cell line) [nM] | IC50 (LRRK2) [nM] | inhibition at 0.5 µM (TNF-α) [%]
CNc1nc(Nc2ccc(S(=O)(=O)N3CCC(N4CCOCC4)CC3)c3c2OCCO3)nc2[nH]cc(C(F)(F)F)c12 [Example 219, N^4-methyl-N^2-(8-((4-morpholinopiperidin-1-yl)sulfonyl)-2,3-dihydrobenzo[b][1,4]dioxin-5-yl)-5-(trifluoromethyl)-7H-pyrrolo[2,3-d]pyrimidine-2,4-diamine] | 301 to 1000 | < 100 | 6.6
COCCNc1nc(Nc2ccc(C(=O)N3CCC(N4CCOCC4)CC3)c3c2OCC3)nc2[nH]cc(C#N)c12 [Example 359, 4-((2-methoxy-ethyl)ami-no)-2-((4-(4-morpholino-piperidine-1-carbonyl)-2,3-dihydro-benzofuran-7-yl)amino)-7H-pyrrolo[2,3-d]pyrimidine-5-carbonitrile] | 301 to 1000 | – | 33.2
CCNc1nc(Nc2ccc(S(=O)(=O)N3CCC(N4CCOCC4)CC3)c3c2OCCO3)nc2[nH]cc(C(F)(F)F)c12 [Example 430, N^4-ethyl-N^2-(8-((4-morpholino-piperidin-1-yl)sulfonyl)-2,3-dihydro-benzo[b][1,4]dioxin-5-yl)-5-(trifluoromethyl)-7H-pyrrolo[2,3-d]pyrimidine-2,4-diamine] | 301 to 1000 | < 100 | 4.5
O=C(c1ccc(Nc2nc(NC3CC3)c3c(C(F)(F)F)c[nH]c3n2)c2c1CCO2)N1CCC(N2CCOCC2)CC1 [Example 434, (7-((4-(cyclopropyl-amino)5-(trifluoromethyl)-7H-pyrrolo[2,3-d]pyrimidin-2-yl)amino)-2,3-dihydrobenzo-furan-4-yl)(4-morpho-linopiperidin-1-yl)methanone] | – | < 100 | 16
COc1cc(P2(=O)CCN(C3CCOCC3)CC2)ccc1Nc1nc(NC2CC2)c2c(C(F)(F)F)c[nH]c2n1 [Example 435, 4-(4-((4-(cyclo-propylamino)-5-(trifluoromethyl)-7H-pyrrolo[2,3-d]pyrimidin-2-yl)amino)-3-methoxyphenyl)-1-(tetrahydro-2H-pyran-4-yl)-1,4-azaphosphinane 4-oxide] | – | < 100 | 6.6
COCCNc1nc(Nc2ccc(P3(=O)CCN(C4CCOCC4)CC3)cc2OC)nc2[nH]cc(C(F)(F)F)c12 [Example 444, 4-(3-methoxy-4-((4-((2-methoxyethyl)amino)-5-(trifluoromethyl)-7H-pyrrolo[2,3-d]pyrimidin-2-yl)amino)phenyl)-1-(tetrahydro-2H-pyran-4-yl)-1,4-azaphosphinane 4-oxide] | – | < 100 | 14.4
CCNc1nc(Nc2ccc(C(=O)N3CC[C@H](N4CCOCC4)C3)c3c2OCC3)nc2[nH]cc(C(F)(F)F)c12 [Example 475, (S)-(7-((4-(ethylamino)-5-(trifluoromethyl)-7H-pyrrolo[2,3-d]pyrimidin-2-yl)amino)-2,3-dihydrobenzo-furan-4-yl)(3-morpholino-pyrrolidin-1-yl)methanone] | – | < 100 | 4.7

Further lines, with some results ahead:

GI50 (MDA-MB-231 cell line) [nM] | IC50 (LRRK2) [nM] | Structure (SMILES) | inhibition at 0.5 µM (TNF-α) [%]
301 to 1000 | – | CNc1nc(Nc2ccc(S(=O)(=O)N3CCC(N4CCOCC4)CC3)cc2OC)nc2[nH]cc(C(F)(F)F)c12 [Example 157, N^2-(2-methoxy-4-((4-morpholinopiperidin-1-yl)sulfonyl)phenyl)-N^4-methyl-5-(trifluoromethyl)-7H-pyrrolo[2,3-d]pyrimidine-2,4-diamine 2,2,2-trifluoroacetate] | 6.7
101 to 300 | < 100 | O=C(c1ccc(Nc2nc(NC3CCCC3)c3c(C(F)(F)F)c[nH]c3n2)c2c1OCCO2)N1CCN(C2COC2)CC1 [Example 414, (8-((4-(cyclopentyl-amino)-5-(trifluoromethyl)-7H-pyrrolo[2,3-d]pyrimidin-2-yl)amino)-2,3-dihydrobenzo[b] [1,4]dioxin-5-yl) (4-(oxetan-3-yl)piperazin-1-yl)methanone] | 40.3
– | < 100 | CCNc1nc(Nc2ccc(C(=O)N3CCC(N4CCOCC4)CC3)c3c2OCC3)nc2[nH]cc(C(F)(F)F)c12 [Example 438, (7-((4-(ethylamino)-5-(trifluoromethyl)-7H-pyrrolo[2,3-d]pyrimidin-2-yl)amino)-2,3-dihydrobenzo-furan-4-yl)(4-morpho-linopiperidin-1-yl)methanone] | 10.8
– | < 100 | COCCNc1nc(Nc2ccc(C(=O)N3CCC(N4CCOCC4)CC3)c3c2OCC3)nc2[nH]cc(C(F)(F)F)c12 [Example 443, (7-((4-((2-methoxyethyl)amino)-5-(trifluoromethyl)-7H-pyrrolo[2,3-d]pyrimidin-2-yl)amino)-2,3-dihydrobenzo-furan-4-yl)(4-morpho-linopiperidin-1-yl)methanone] | 10.8
– | < 100 | CCCNc1nc(Nc2ccc(C(=O)N3CCC(N4CCOCC4)CC3)c3c2OCC3)nc2[nH]cc(C(F)(F)F)c12 [Example 446, (4-morpholino-piperidin-1-yl)(7-((4-(propylamino)-5-(trifluoromethyl)-7H-pyrrolo[2,3-d]pyrimidin-2-yl)amino)-2,3-dihydrobenzo-furan-4-yl)methanone] | 22.5
– | < 100 | O=C(c1ccc(Nc2nc(NCC3CC3)c3c(C(F)(F)F)c[nH]c3n2)c2c1CCO2)N1CCC(N2CCOCC2)CC1 [Example 461, (7-((4-((cyclo-propylmeth-yl)amino)-5-(trifluoromethyl)-7H-pyrrolo[2,3-d]pyrimidin-2-yl)amino)-2,3-dihydrobenzo-furan-4-yl)(4-morpho-linopiperidin-1-yl)methanone] | 2.3
– | < 100 | CCNc1nc(Nc2ccc(C(=O)N3CCC(N4C[C@@H]5C[C@H]4CO5)CC3)c3c2OCC3)nc2[nH]cc(C(F)(F)F)c12 [Example 468] | 16.5
101 to 300 | – | COc1cc(S(=O)(=O)N2CCC(N3C[C@H]4C[C@@H]3CO4)CC2)ccc1Nc1nc(C2CC2)c2c(C(F)(F)F)c[nH]c2n1 [Example 473, N-(4-((4-((1R,4R)-2-oxa-5-azabicyclo[2.2.1]heptan-5-yl)piperidin-1-yl)sulfonyl)-2-methoxyphenyl)-4-cyclopropyl-5-(trifluoromethyl)-7H-pyrrolo[2,3-d]pyrimidin-2-amine] | 11.3
